The record followed here is patent US8242111B2, “Cyclic inhibitors of 11β-hydroxysteroid dehydrogenase 1” (Vitae Pharmaceuticals, Inc., priority 2008, dated 2012).

Where two headings read alike, the source gives them in different places.

For the assay, the target named is T1, human 11β-HSD1 (Homo sapiens, UniProt P28845).
T1 construct: expressed in transfected cells; host or cells: CHO cells (microsomes)
In words: Biological Test Example 1: inhibition of a microsomal preparation of 11β-HSD1 (SPA). The settings on record: for inhibition at 0.1 µM: read-out: Average % inhibition at 100 nM. Type of assay: biochemical.

Setting [1] is: read-out: Biological Test Example 1 IC50, comparator compounds.
Where [2] appears, read: Biological Test Example 1, read-out: IC50 Range.
Where [3] appears, read: Biological Test Example 1 IC50 (nM), examples.

T1 sequence (P28845 whole entry): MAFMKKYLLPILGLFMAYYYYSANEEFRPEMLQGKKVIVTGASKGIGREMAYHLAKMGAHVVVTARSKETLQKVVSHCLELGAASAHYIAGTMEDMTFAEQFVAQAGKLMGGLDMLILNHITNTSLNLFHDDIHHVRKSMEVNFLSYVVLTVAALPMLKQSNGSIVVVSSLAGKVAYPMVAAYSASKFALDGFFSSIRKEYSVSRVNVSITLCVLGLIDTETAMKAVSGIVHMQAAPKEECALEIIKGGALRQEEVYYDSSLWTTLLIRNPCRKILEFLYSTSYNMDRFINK

Regarding “(S)-3-((S)-1-(3-fluoropyridin-2-yl)piperidin-3-yl)-6-(2-hydroxy-2-methylpropyl)-6-phenyl-1,3-oxazinan-2-one [Example 1]”, under setting [1], the IC50 (in general, the concentration needed to halve the response being measured) was 0.77 nM.

For the molecule `N#Cc1ccc(N2CCC[C@H](N3CC[C@](CCCO)(c4ccc(F)cc4)OC3=O)C2)nc1` [Example 17, 6((S)-3-((R)-6-(4-fluorophenyl)-6-(3-hydroxypropyl)-2-oxo-1,3-oxazinan-3-yl)piperidin-1-yl)nicotinonitrile], the inhibition (as a rule, the drop in the measured response relative to a control, in per cent) at 0.1 µM stood at 94.7%. For the same molecule, the IC50 under setting [2] was below 100 nM.

`Cc1cc(N2CCC[C@H](N3CC[C@](CC(C)(C)O)(c4ccccc4)OC3=O)C2)nc(C)n1` [Example 9, (S)-3-((S)-1-(2,6-dimethylpyrimidin-4-yl)piperidin-3-yl)-6-(2-hydroxy-2-methylpropyl)-6-phenyl-1,3-oxazinan-2-one]: the inhibition at 0.1 µM amounted to 40.2%. Besides, the IC50 under setting [2] was below 100 nM. This molecule showed an IC50 under setting [3] of 84.3 nM.

As to “(S)-6-(2-hydroxy-2-methylpropyl)-6-phenyl-3-((S)-1-(3-(trifluoromethyl)pyridin-2-yl)piperidin-3-yl)-1,3-oxazinan-2-one [Example 2]”, the IC50 under setting [1] stood at 1.8 nM.

Regarding `NC(=O)c1ccc(N2CCC[C@H](N3CC[C@](CCCO)(c4ccc(F)cc4)OC3=O)C2)nc1` [Example 18, 6-((S)-3-((R)-6-(4-fluorophenyl)-6-(3-hydroxypropyl)-2-oxo-1,3-oxazinan-3-yl)piperidin-1-yl)nicotinamide], the inhibition at 0.1 µM amounted to 81.6%. In addition, under setting [2], the IC50 was below 100 nM. Besides, the IC50 under setting [3] is 26.4 nM.

On to `Cc1cnc(N2CCC[C@H](N3CC[C@](CC(C)(C)O)(c4ccccc4)OC3=O)C2)s1` [Example 13, (S)-6-(2-hydroxy-2-methylpropyl)-3-((S)-1-(5-methylthiazol-2-yl)piperidin-3-yl)-6-phenyl-1,3-oxazinan-2-one], for which the inhibition at 0.1 µM stood at 90.4%. Also, the half-maximal inhibitory concentration (IC50) under setting [2] is below 100 nM. The molecule further registered an IC50 under setting [3] of 13.5 nM.

With `CC(C)(O)C[C@]1(c2ccccc2)CCN([C@H]2CCCN(c3ccnc(C(F)(F)F)n3)C2)C(=O)O1` [Example 11, (S)-6-(2-hydroxy-2-methylpropyl)-6-phenyl-3-((S)-1-(2-(trifluoromethyl)pyrimidin-4-yl)piperidin-3-yl)-1,3-oxazinan-2-one], the inhibition at 0.1 µM was 75.3%. Also, the IC50 under setting [2] was below 100 nM. The same molecule yielded an IC50 under setting [3] of 19.1 nM.

As to `COc1cnc(N2CC[C@H](N3CC[C@](CC(C)(C)O)(c4ccccc4)OC3=O)C2)nc1` [Example 24, (S)-6-(2-hydroxy-2-methylpropyl)-3-((S)-1-(5-methoxypyrimidin-2-yl)pyrrolidin-3-yl)-6-phenyl-1,3-oxazinan-2-one], the inhibition at 0.1 µM was 67.8%. Also, the 50% inhibitory concentration (IC50) under setting [2] was below 100 nM. Also, the IC50 under setting [3] was found to be 42.3 nM.

In the case of `CC(C)(O)C[C@]1(c2ccccc2)CCN([C@H]2CCCN(c3ncc(C(=O)NC(C)(C)C)s3)C2)C(=O)O1` [Example 21, N-tert-butyl-2-((S)-3-((S)-6-(2-hydroxy-2-methylpropyl)-2-oxo-6-phenyl-1,3-oxazinan-3-yl)piperidin-1-yl)thiazole-5-carboxamide], the inhibition at 0.1 µM turned out to be 27.3%. In addition, the IC50 under setting [2] was determined as 190 nM. This molecule yielded an IC50 under setting [3] above 100 nM.

Regarding `CC(C)(O)C[C@]1(c2ccccc2)CCN([C@H]2CCCN(c3ncccc3F)C2)C(=O)O1` [Example 1, (S)-3-((S)-1-(3-fluoropyridin-2-yl)piperidin-3-yl)-6-(2-hydroxy-2-methylpropyl)-6-phenyl-1,3-oxazinan-2-one], the inhibition at 0.1 µM was determined as 85.5%. For the same molecule, under setting [2], the IC50 is below 100 nM. Also, the IC50 under setting [3] was 12.7 nM.

On to “(S)-3-((S)-1-(5-fluoropyrimidin-2-yl)piperidin-3-yl)-6-(2-hydroxy-2-methylpropyl)-6-phenyl-1,3-oxazinan-2-one [Example 7]”, for which the IC50 under setting [1] stood at 0.99 nM.

Consider “(S)-6-(2-hydroxy-2-methylpropyl)-6-phenyl-3-((S)-1-(6-(trifluoromethyl)pyridin-2-yl)piperidin-3-yl)-1,3-oxazinan-2-one [Example 5]”, for which the IC50 under setting [1] was 0.51 nM.
